{
  "source": "patent US6828092B1",
  "about": "(priority 1995, dated 2004)",
  "key": {"[1]": {"system": "lanosterol 14-a-demethylase gene induction", "details": "HMG1-deleted yeast; cited from earlier work"}, "[2]": {"system": "ACoAT promoter-β-galactosidase reporter gene in yeast strain MEY133::pACoAT (sterol biosynthesis)", "assay": "Reporter gene (β-galactosidase) induction assay in reporter yeast strain", "type": "cell-based, S. cerevisiae", "details": "for concentration above which reporter gene activity is induced: 24 hours at 30° C.; for reporter gene induction per cell: relative to basal", "procedure": "Reporter gene induction is defined as:\nwhere f refers to a final reading, and i to an initial reading. 100 to a concentration of 100 μg/ml and 10 to a concentration of 10 ng/ml. Reporter gene induction per cell is defined as: […]\n(§1) Reporter gene activity assays (β-galactosidase assays) were performed using a single step procedure with the substrate chlorophenol red-β-D-galactopyranoside (CPRG, Boehringer): this substrate gives rise to a red product when cleaved by β-galactosidase. The appearance of this product can assessed by monitoring the optical density at 570 nm (OD570). The assays were performed in the wells of microtitre plates containing 200 μi of yeast in uracil-deficient medium. 50 μl of reaction mix was added to these wells, and immediately after this the absorption at 570 nm was measured using a Molecular Devices plate reader. Reaction mix was prepared as follows. 10×Z buffer (Ausabel et al) was prepared by dissolving 85.2 g Na2HPO4, 62.4 g NaH2PO4.2H2O, 7.5 g KCl and 2.46 g MgSO4.7H2O in 500 mls water. 2.7 mls β-mercaptoethanol was added to this solution and mixed. The pH was adjusted to pH 7 using 5M NaOH and the volume made up to 1 litre with water. 200 mls of reaction buffer was made by mixing 100 mls 10×Z buffer, 1.0 ml of 20% (w/v) sodium docedyl sulphate, 10 mls 50 mM CPRG and 89 mls water. After 2 hours a final OD570 reading was taken. Over this time frame, using the yeast strains descibed below, the rate of change of OD570 was constant. Therefore OD570final minus OD570 initial is taken as a measure of total reporter gene activity. OD570 initial is taken as a measurement of the number of cells in the culture, and reporter gene activity per cell is calculated as […].\nMaximal induction of reporter gene activity by terbinafine in MEY133::pACoAT was obtained by:\n(1) thawing a 1 ml aliquot of frozen stock and adding it to 100 ml of uracil deficient medium in a 500 ml conical flask and incubating for 24 hours at 30° C. with agitation to aerate the culture.\n(2) diluting a sample of this culture with uracil deficient medium to give 100 mls of a culture with an optical density at 600 nm of 1.0 units, and incubating this culture for a further 24 hours in an incubator at 30° C. with agitation.\n(§2) (3) diluting a sample of this culture with uracil deficient medium to give a culture with an optical density at 600 nm of 0.35 units. This culture was dispensed into 96 well flat-bottomed mucrotitre plates containing compounds. Each well contained 20 μl compound dissolved in 10% (v/v) dimethylsulphoxide. 180 μl culture was added each well. The plates were sealed with Titertex plate sealers and incubated for 24 hours at 30° C.\n(§3) (4) The plates were removed from the incubator, and shaken to resuspend the yeast. The platesealers were removed and […] reaction mix added to each well. An initial OD570 reading was taken immediately following this addition. After a further two hours a final OD570 reading was taken. Optical density readings were taken with a Molecular Devices platereader using Softmax software. The machine was set to automatically agitate the samples before taking the reading.\n(§4) The reporter gene in the yeast strain MEY133::ACoAT is induced by a range of sterol biosynthesis inhibitor. FIGS. 2-10 present dose-responses to nine different sterol biosynthesis inhibitors. The measurements of reporter gene activity and growth were obtained using the standard procedure described above. Each point on the graph is the average of three measurements, standard deviations being indicated by the error bars. In the absence of sterol biosynthesis inhibitors, a basal activity of the reporter gene is observed. This corresponds to a change in OD570 of 0.23 units/two hours (average of 15 measurements). During the period of time of the incubation the yeast cells grow to a density of 0.86 OD570 units (average of 15 measurements)."}, "[3]": {"system": "yeast strain MEY133::pACoAT", "assay": "Growth of reporter yeast strain (OD570)", "type": "cell-based, S. cerevisiae", "details": "OD570, 24 hours incubation", "procedure": "Reporter gene activity (OD570final−OD570initial) is indicated by solid squares. Growth (OD570 final) is indicated by open squares. Each point is the average of three measurements. Error bars indicate standard deviations.\nas §1, §2, §3, §4"}, "[4]": {"system": "ACoAT promoter-β-galactosidase reporter gene in yeast strain MEY133::pACoAT (sterol biosynthesis)", "assay": "Reporter gene (β-galactosidase) induction assay in reporter yeast strain", "type": "cell-based, S. cerevisiae"}, "Squalene synthase": {"system": "Squalene synthase", "details": "S. cerevisiae, application of inhibitor; cited from earlier work"}},
  "data": [
    {"smiles": "Cc1cccc(N(C)C(=S)Oc2ccc3ccccc3c2)c1", "note": "[tolnaftate]", "values": [
      {"measurement": "detection in Kirsch screen", "setting": "[1]", "value": "not detected"}
    ]},
    {"smiles": "C[C@@H]1[C@H](O)[C@@H](C)/C=C/C=C/C=C/C=C/C=C/C=C/C=C/[C@H](O[C@@H]2O[C@H](C)[C@@H](O)[C@H](N)[C@@H]2O)C[C@@H]2O[C@](O)(C[C@@H](O)C[C@@H](O)[C@H](O)CC[C@@H](O)C[C@@H](O)CC(=O)O[C@H]1C)C[C@H](O)[C@H]2C(=O)O", "note": "[amphotericin B]", "values": [
      {"measurement": "reporter gene activity response (in words)", "setting": "[2]; MEY133::pACoAT", "value": "do not induce reporter gene activity"}
    ]},
    {"smiles": "CC(Cc1ccc(C(C)(C)C)cc1)CN1C[C@@H](C)O[C@@H](C)C1", "note": "(some centres unmarked) [Fenpropimorph]", "values": [
      {"measurement": "growth inhibition (in words)", "setting": "[3]", "value": "inhibiting growth to some extent"},
      {"measurement": "reporter gene activity response (in words)", "setting": "[2]; MEY133::pACoAT", "value": "induces reporter gene activity"}
    ]},
    {"smiles": "CN(Cc1ccc(C(C)(C)C)cc1)Cc1cccc2ccccc12", "note": "[4-t-butyl-N-methyl-N-(I-naphthylmethyl)benzylamine]", "values": [
      {"measurement": "reporter gene induction compared with terbinafine", "setting": "[2]; at 100 μg/ml", "value": "to the same extent as terbinafine"},
      {"measurement": "reporter gene induction compared with terbinafine", "setting": "[4]; at 10 μg/ml", "value": "much less active than terbinafine"}
    ]},
    {"smiles": "CCCCCCN1CCCC(Cc2ccc(C(C)(C)C)cc2)C1", "note": "(centres unmarked) [3-(4-t-butylbenzyl)-(N-hexyl)-piperidine]", "values": [
      {"measurement": "reporter gene activity response (in words)", "setting": "[2]; MEY133::pACoAT", "value": "very sharp"},
      {"measurement": "concentration above which reporter gene activity is induced", "setting": "[2]; MEY133::pACoAT, dose-response", "value": "above 10 μg/ml"}
    ]},
    {"smiles": "CC[C@H](C)C(=O)O[C@H]1C[C@@H](C)C=C2C=C[C@H](C)[C@H](CC[C@@H]3C[C@@H](O)CC(=O)O3)[C@H]21", "note": "[Lovastatin]", "values": [
      {"measurement": "increase of squalene synthase levels", "setting": "Squalene synthase", "value": "2-3 fold"},
      {"measurement": "concentration above which reporter gene activity is induced", "setting": "[2]; MEY133::pACoAT, dose-response", "value": "above 1 μg/ml"},
      {"measurement": "reporter gene induction per cell", "setting": "[2]", "value": 5, "unit": "fold"}
    ]},
    {"smiles": "OC(Cn1cncn1)(c1ccc(F)cc1)c1ccccc1F", "note": "(centres unmarked) [Flutriafol]", "values": [
      {"measurement": "growth inhibition (in words)", "setting": "[3]", "value": "Some growth inhibition"},
      {"measurement": "concentration at which detectable reporter gene induction occurs", "setting": "[2]; MEY133::pACoAT, dose-response", "value": 0.1, "unit": "µg/mL"}
    ]},
    {"smiles": "C=C(CC[C@]12O[C@H](C(=O)O)[C@@](O)(C(=O)O)[C@](C(=O)O)(O1)[C@H](OC(=O)/C=C/[C@@H](C)C[C@@H](C)CC)[C@H]2O)[C@@H](OC(C)=O)[C@H](C)Cc1ccccc1", "note": "[Squalestatin]", "values": [
      {"measurement": "growth inhibition (in words)", "setting": "[3]", "value": "growth inhibitory effect of squalestatin at higher concentrations"},
      {"measurement": "reporter gene activity response (in words)", "setting": "[2]; MEY133::pACoAT", "value": "biphasic response"},
      {"measurement": "concentration of maximal reporter gene induction", "setting": "[2]; MEY133::pACoAT, dose-response", "value": 10, "unit": "µg/mL"},
      {"measurement": "reporter gene activity per cell, comparison of concentrations", "setting": "[4]; 10 μg/ml versus 100 μg/ml", "value": "almost identical"}
    ]},
    {"smiles": "CN(C/C=C/C#CC(C)(C)C)Cc1cccc2ccccc12", "note": "[Terbinafine]", "values": [
      {"measurement": "growth inhibition (in words)", "setting": "[3]", "value": "inhibits growth to a limited extent"},
      {"measurement": "concentration above which reporter gene activity is induced", "setting": "[2]; MEY133::pACoAT, dose-response", "value": "above 1 μg/ml"},
      {"measurement": "reporter gene induction per cell", "setting": "[2]", "value": 9, "unit": "fold"}
    ]},
    {"smiles": "Nc1nc(=O)[nH]cc1F", "note": "[5-flucytosine]", "values": [
      {"measurement": "reporter gene activity response (in words)", "setting": "[2]; MEY133::pACoAT", "value": "do not induce reporter gene activity"}
    ]},
    {"smiles": "CCC(C)(C)c1ccc(CC(C)CN2C[C@@H](C)O[C@@H](C)C2)cc1", "note": "(some centres unmarked) [Amorolfine]", "values": [
      {"measurement": "growth inhibition (in words)", "setting": "[3]", "value": "some growth inhibitory properties"},
      {"measurement": "concentration above which reporter gene activity is induced", "setting": "[2]; MEY133::pACoAT, dose-response", "value": "above 1 μg/ml"}
    ]}
  ]
}
